Experimental data published in US8937167B2 (Washington University, priority 2009, dated 2015).
Like-named read-outs stand apart in the source and are kept apart here.

Target: FimH (Escherichia coli, UniProt Q1R2J4)
Conditions: for HAI Titer EC>50: Table 21
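Also: hemagglutination inhibition of guinea pig erythrocytes agglutinated by type 1 piliated uropathogenic E. coli via FimH mannose binding, quantified through serial dilutions of compound.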

Procedure: In some embodiments, activity of the compound is measured using hemmagglutination titer of guinea pig red blood cells. Hemagglutination of guinea pig red blood cells by type1 piliated UPEC is dependent upon FimH mannose binding ability and serial dilutions allow a quantitative analysis.
Biological activity against FimH was evaluated using a guinea pig red blood cell-based hemagglutination (HA) assay (ref) in which the concentration of the mannoside on reducing agglutination by 50% was used as the primary endpoint (50% HA titer).
Hemagglutination of guinea pig red blood cells by type1 piliated UPEC is dependent upon FimH mannose binding ability. Serial dilutions allow a quantitative analysis using this assay.
Hemagglutination assays for mannose-sensitive agglutination of guinea pig red blood cells were performed as previously described.

SMILES	HAI Titer EC>90 [µM]	also measured
N#Cc1ccccc1OC1OC(CO)C(O)C(O)C1O (stereo not shown) [Compound 3m]		EC50 (read-out: HA 50% Titer, Table 10, Example 6 numbering): 6 µM
OCC1OC(Oc2ccc(-c3ccncc3)cc2)C(O)C(O)C1O (stereo not shown) [Compound 3ZFH96, 2-(hydroxymethyl)-6-[4-(4-pyridyl)phenoxy]tetrahydropyran-3,4,5-triol]	2.000	
COC(=O)c1cccc(-c2ccc(C(=O)NCC3O[C@@H](CO)[C@@H](O)[C@H](O)[C@H]3O)cc2)c1 (stereo partly drawn) [Compound 4ZFH131, methyl 3-[4-[[(3R,4R,5S,6S)-3,4,5-trihydroxy-6-(hydroxymethyl)tetrahydropyran-2-yl]methylcarbamoyl]phenyl]benzoate]	16.000	HAI Titer EC>50 (ZFH/JWJ codes): 16.000 µM; HAI Titer EC>90 (Table 22, ZFH/JWJ codes): 16.000 µM
COC(=O)c1cccc(-c2ccc(OC3OC(CO)C(O)C(O)C3O)cc2)c1 (stereo not shown) [Compound 2ZFH238]		HAI Titer EC>50: >2500 µM
O=C(NCCCCCCCCNC(=O)c1cccc(-c2ccc(OC3OC(CO)C(O)C(O)C3O)cc2)c1)c1cccc(-c2ccc(OC3OC(CO)C(O)C(O)C3O)cc2)c1 (stereo not shown) [Compound 2ZFH234, 3-[4-[3,4,5-trihydroxy-6-(hydroxymethyl)tetrahydropyran-2-yl]oxyphenyl]-N-[8-[[3-[4-[3,4,5-trihydroxy-6-(hydroxymethyl)tetrahydropyran-2-yl]oxyphenyl]benzoyl]amino]octyl]benzamide]	2.00	
CNC(=O)c1cccc(-c2ccc(OC3OC(CO)C(O)C(O)C3O)cc2C(=O)NC)c1 (stereo not shown) [Compound 2ZFH266, N-methyl-2-[3-(methylcarbamoyl)phenyl]-5-[3,4,5-trihydroxy-6-(hydroxymethyl)tetrahydropyran-2-yl]oxy-benzamide]	12.000	
O=C(NCCO)c1cccc(-c2ccc(OC3OC(CO)C(O)C(O)C3O)cc2)c1 (stereo not shown) [Compound 3ZFH276, N-(2-hydroxyethyl)-3-[4-[3,4,5-trihydroxy-6-(hydroxymethyl)tetrahydropyran-2-yl]oxyphenyl]benzamide]	0.5000	
COC(=O)c1cccc(-c2ccc(OC3OC(CO)C(O)C(O)C3O)c(Cl)c2)c1 (stereo not shown) [Compound 4ZFH49, methyl 3-[3-chloro-4-[3,4,5-trihydroxy-6-(hydroxymethyl)tetrahydropyran-2-yl]oxy-phenyl]benzoate]	0.032	
COC(=O)c1cccc(-c2ccc(NC3OC(CO)C(O)C(O)C3O)cc2)c1 (stereo not shown) [Compound 4ZFH44, methyl 3-[4-[[3,4,5-trihydroxy-6-(hydroxymethyl)tetrahydropyran-2-yl]amino]phenyl]benzoate]	4.000	
NCCOCCOCCNC(=O)c1cc(-c2ccc(OC3OC(CO)C(O)C(O)C3O)cc2)cc([N+](=O)[O-])c1 (stereo not shown) [Compound 3ZFH245, N-[2-[2-(2-aminoethoxy)ethoxy]ethyl]-3-nitro-5-[4-[3,4,5-trihydroxy-6-(hydroxymethyl)tetrahydropyran-2-yl]oxyphenyl]benzamide]	0.25	
COC(=O)c1sc(-c2ccc(OC3OC(CO)C(O)C(O)C3O)cc2)cc1NC(N)=O (stereo not shown) [Compound 4ZFH52-JJ, methyl 5-[4-[3,4,5-trihydroxy-6-(hydroxymethyl)tetrahydropyran-2-yl]oxyphenyl]-3-ureido-thiophene-2-carboxylate]	0.016	
NC1C(O)C(CO)OC(OCc2ccccc2)C1O [Benzyl 3-amino-3-deoxy-a-D-mannoside, reference compound]		HAI Titer EC>90 (mM): >1000 µM
OCc1ccccc1-c1ccc(OC2OC(CO)C(O)C(O)C2O)cc1 (stereo not shown) [Compound 3ZFH114, 2-(hydroxymethyl)-6-[4-[2-(hydroxymethyl)phenyl]phenoxy]tetrahydropyran-3,4,5-triol]	16.000	
OCC1OC(Oc2ccc(-c3cccc4cnccc34)cc2)C(O)C(O)C1O (stereo not shown) [Compound 5ZFH61]		HAI Titer EC>50 (ZFH/JWJ codes): 0.250 µM
COC(=O)Cc1cc(OC2OC(CO)C(O)C(O)C2O)ccc1O (stereo not shown) [Compound 1ZFH187, methyl 2-[2-hydroxy-5-[3,4,5-trihydroxy-6-(hydroxymethyl)tetrahydropyran-2-yl]oxy-phenyl]acetate]	15.000	
NC(=O)c1ccccc1-c1ccc(OC2OC(CO)C(O)C(O)C2O)cc1 (stereo not shown) [Compound 3ZFH66, 2-[4-[3,4,5-trihydroxy-6-(hydroxymethyl)tetrahydropyran-2-yl]oxyphenyl]benzamide]	6.000	
OCC1OC(n2cc(-c3ccccc3)nn2)C(O)C(O)C1O (stereo not shown) [Compound 4ZFH105, 2-(hydroxymethyl)-6-(4-phenyltriazol-1-yl)tetrahydropyran-3,4,5-triol]	32.000	
COC(=O)COC1OC(CO)C(O)C(O)C1O (stereo not shown) [Compound 1ZFH74]		HAI Titer EC>50 (ZFH/JWJ codes): 500.000 µM
CNC(=O)c1cncc(-c2ccc(OC3OC(CO)C(O)C(O)C3O)cc2)c1 (stereo not shown)	0.500	
OCc1ccc(-c2ccc(OC3OC(CO)C(O)C(O)C3O)cc2)cc1 (stereo not shown) [Compound 14i]		EC90 (read-out: HA 50% titer EC90, Table 12, Example 6 numbering): 6 µM

SMILES	HAI Titer EC>90 [µM]	also measured
OCC1OC(Oc2cc(C(F)(F)F)cc(C(F)(F)F)c2)C(O)C(O)C1O (stereo not shown) [Compound 1ZFH274, 2-[3,5-bis(trifluoromethyl)phenoxy]-6-(hydroxymethyl)tetrahydropyran-3,4,5-triol]	32.000	
O=c1[nH]ccc2ccc(-c3ccc(OC4OC(CO)C(O)C(O)C4O)cc3)cc12 (stereo not shown) [Compound 5ZFH63]		HAI Titer EC>50 (ZFH/JWJ codes): 0.100 µM
CNC(=O)c1cccc(-c2ccc([C@H](O)C3OC(CO)C(O)C(O)C3O)cc2)c1 (stereo partly shown) [Compound 5ZFH48]		HAI Titer EC>50 (ZFH/JWJ codes): 24.000 µM
OC[C@@H]1OC(Oc2ccc(-c3ccc4ncncc4c3)cc2)[C@H](O)[C@@H](O)[C@@H]1O (stereo partly drawn) [Compound 4ZFH247, (2S,3S,4S,5R)-2-(hydroxymethyl)-6-(4-quinazolin-6-ylphenoxy)tetrahydropyran-3,4,5-triol]	0.375	HAI Titer EC>50 (ZFH/JWJ codes): 0.375 µM; HAI Titer EC>90 (Table 22, ZFH/JWJ codes): 0.375 µM
COC(=O)c1cccc(-c2ccc(SC3OC(CO)C(O)C(O)C3O)cc2)c1 (stereo not shown) [Compound 4ZFH55, methyl 3-[4-[3,4,5-trihydroxy-6-(hydroxymethyl)tetrahydropyran-2-yl]sulfanylphenyl]benzoate]	4.000	
N#Cc1ccccc1-c1ccc(OC2OC(CO)C(O)C(O)C2O)cc1 (stereo not shown) [Compound 3ZFH64, 2-[4-[3,4,5-trihydroxy-6-(hydroxymethyl)tetrahydropyran-2-yl]oxyphenyl]benzonitrile]	2.000	
OCC1OC(Oc2ccc(-c3ccccc3O)cc2)C(O)C(O)C1O (stereo not shown) [Compound 3ZFH111, 2-(hydroxymethyl)-6-[4-(2-hydroxyphenyl)phenoxy]tetrahydropyran-3,4,5-triol]	8.000	
NCCNC(=O)c1cccc(-c2ccc(OC3OC(CO)C(O)C(O)C3O)cc2)c1 (stereo not shown) [Compound 3ZFH280, N-(2-aminoethyl)-3-[4-[3,4,5-trihydroxy-6-(hydroxymethyl)tetrahydropyran-2-yl]oxyphenyl]benzamide]	3.000	
COC(=O)c1cc2ccc(OC3OC(CO)C(O)C(O)C3O)cc2s1 (stereo not shown) [Compound 2ZFH304, methyl 6-[3,4,5-trihydroxy-6-(hydroxymethyl)tetrahydropyran-2-yl]oxybenzothiophene-2-carboxylate]	2.000	
O=C(c1cccc(-c2ccc(OC3OC(CO)C(O)C(O)C3O)cc2)c1)N1CCNCC1 (stereo not shown) [Compound 3ZFH284, piperazin-1-yl-[3-[4-[3,4,5-trihydroxy-6-(hydroxymethyl)tetrahydropyran-2-yl]oxyphenyl]phenyl]methanone]	4.0000	
OCC1OC(Oc2cccc(Cl)c2)C(O)C(O)C1O (stereo not shown) [Compound 2ZFH181, 2-(3-chlorophenoxy)-6-(hydroxymethyl)tetrahydropyran-3,4,5-triol]	8.000	
COC(=O)c1cc(-c2ccc(OC3OC(CO)C(O)C(O)C3O)cc2)ccn1 [Compound 3ZFH220, methyl 4-[4-(a-D-mannopyranosyloxy)phenyl]pyridine-2-carboxylate]	0.500	
OCC1OC(Oc2ccccc2Cl)C(O)C(O)C1O (stereo not shown) [Compound 2ZFH180, 2-(2-chlorophenoxy)-6-(hydroxymethyl)tetrahydropyran-3,4,5-triol]	4.000	
OCC1OC(Oc2ccc(-c3cccnc3)cc2)C(O)C(O)C1O (stereo not shown) [Compound 3ZFH93, 2-(hydroxymethyl)-6-[4-(3-pyridyl)phenoxy]tetrahydropyran-3,4,5-triol]	2.000	
CNS(=O)(=O)c1cccc(-c2ccc(OC3OC(CO)C(O)C(O)C3O)cc2)c1 (stereo not shown) [Compound 3ZFH179, N-methyl-3-[4-[3,4,5-trihydroxy-6-(hydroxymethyl)tetrahydropyran-2-yl]oxyphenyl]benzenesulfonamide]	1.000	
O=[N+]([O-])c1ccc(OC2OC(CO)C(O)C(O)C2O)cc1 (stereo not shown) [PNP-mannoside, reference compound]	31.000	
COC(=O)c1cccc(-c2ccc(OC3OC(CO)C(O)C(O)C3O)cc2C(=O)OC)c1 (stereo not shown) [Compound 2ZFH244, methyl 2-(3-methoxycarbonyl-phenyl)-5-[3,4,5-trihydroxy-6-(hydroxymethyl)tetrahydropyran-2-yl]oxy-benzoate]	1.000	
O=C(NCCCCOC1OC(CO)C(O)C(O)C1O)c1ccc(-c2c3ccc(=O)cc-3oc3cc(O)ccc23)c(C(=O)O)c1 (stereo not shown) [Compound 1ZFH134]		HAI Titer EC>50 (ZFH/JWJ codes): 125.000 µM
O=C(Nc1ccncc1)c1cccc(-c2ccc(O[C@H]3O[C@H](CO)[C@@H](O)[C@H](O)[C@@H]3O)cc2)c1 [Compound 10e, N-(4-Pyridyl)-3-[4-[(2R,3S,4S,5S,6R)-3,4,5-trihydroxy-6-(hydroxymethyl)tetrahydropyran-2-yl]oxyphenyl]benzamide]		HAI Titer EC>90 (Table 18, Examples 30-36 numbering): 0.25 µM
